# Measured values as given in US20250332139A1, “PS[…] AND THEIR USE FOR TREATING […] AND NE[…] DISORDERS” (Transcend Therapeutics, Inc., priority 2021, published 2025).
# “And” between values parts separate entries of the source, which are not always exact repeats. Equal entries are not always repeated. Marks after values point to notes of the source that are not given here.
# Tests used:
# Sprague Dawley rats = assay: Forced Swim Test (FST); assay type: in vivo, rat
# Excerpt: The Forced Swim Test (FST) is a classic, and the most used preclinical behavioral assay to screen compounds with antidepressant-like activity and has high predictive and face validity (Porsolt et al. (1977) Nature 266:730; Borsini and Meli (1988) Psychopharmacology 94:147). The premise of the FST is that when rats are placed into a cylinder filled with water, they will initially try to escape, but over time will become immobile. This increased immobility reflects behavioral despair, modeling a depressive-like state.
# Forced Swim Test (FST): In the FST trial, rats were placed in a circular plexiglass container filled with water, with no means of escape. Water temperature was maintained at 22-25° C. and changed for every animal. After an acclimation period, rats were timed for inactivity (failure to struggle), activity, swim time and climbing time. Day 1 consisted of a 15 min acclimation trial, and Day 2 (24 h later) consisted of the 5 min test. A time sampling procedure was employed where animals were observed every 5 sec and scored for immobility, swimming, or climbing. Fluoxetine (10 mg/kg, IP, Sigma Aldrich) or 0.9% sterile saline vehicle (vehicle 3X group) were administered 23.5, 5, and 1 h before testing in the FST. […] The experimenter was blinded to treatment.
# Forced Swim Test: In the FST trial, rats were placed in a circular plexiglass container filled with water, with no means of escape. Water temperature was maintained at 22-25° C. and changed for every animal. After an acclimation period, rats were timed for inactivity (failure to struggle), activity, swim time and climbing time. Day 1 consisted of a 15 min acclimation trial, and Day 2 (24 h later) consisted of the 5 min test. A time sampling procedure was employed where animals were observed every 5 sec and scored for immobility, swimming, or climbing. Fluoxetine (10 mg/kg, IP, Sigma Aldrich) or 0.9% sterile saline vehicle (vehicle 3X group) were administered 23.5, 5, and 1 h before testing in the FST. 2C-B (2.5, 10, or 20 mg/kg, IP, Cayman Chemical) or 0.9% saline vehicle (vehicle 1X group) were administered 30 min prior to FST testing. The experimenter was blinded to treatment.
# Drug Treatment: Fluoxetine (10 mg/kg, IP, Sigma Aldrich) or 0.9% sterile saline vehicle were administered 23.5, 5, and 1 h before testing in the FST. […] Control animals received fluoxetine alone, methylone alone, or saline vehicle.
# Forced Swim Test: In the FST trial, rats were placed in a circular plexiglass container filled with water, with no means of escape. Water temperature was maintained at 22-25° C. and changed for every animal. After an acclimation period, rats were timed for inactivity (failure to struggle), activity, swim time and climbing time. The experimenter and scorer were blind to treatment group. Day 1 consisted of a 15 min acclimation trial, and Day 2 (24 h later) consisted of the 5 min test. A time sampling procedure was employed where animals were observed every 5 sec and scored for immobility, swimming, or climbing.
# The FST was performed and scored by an experimenter blind to treatment group according to standard protocols and based on a “modified FST” procedure (Slattery and Cryan (2012) Nat Protoc, 7:1009). Briefly, rats were placed in a circular plexiglass container (29.2 cm diameter, 49.5 cm height) filled with water to a depth of 30 cm so rats could not support themselves by touching the bottom of the tank. Water was maintained at 22-25° C. and was changed for every animal. Day 1 (Training) consisted of a 15 min acclimation trial, and Day 2 (Testing, 24 h later) consisted of the 5 min test. A time sampling procedure was employed where animals were observed every 5 seconds for the duration of the test session (60 counts or 5 minutes) and scored for immobility (defined as the failure to struggle), swimming (defined as a circular movement around the tank), or climbing (defined as an upwards escape behavior). […]
# [1] = system: patients with PTSD or MDD; healthy subjects; assay: Methylone case series (outpatient, CGI-S/CGI-I); assay type: in vivo, human
# Method: CGI-S scale was also evaluated in a subset of patients from Cohort 2 post-treatment. Cohort 2 was evaluated for any observed or reported safety events following a single dosing session.
# Clinical Global Impressions (CGI) scale includes 2 components: CGI-S(“severity”) and CGI-I (“improvement”).
# No protected health information was disclosed, and no consent was obtained from patients for use of their archival data. Case narratives were systematically compiled from data collected as part of routine clinical work. Diagnoses were confirmed by an experienced clinician using semi-structured interviews. Baseline symptom severity was evaluated using the Clinical Global Impressions Scale-Severity (CGI-S). Symptom improvement was evaluated using the Clinical Global Impressions Scale-Improvement (CGI-I) following dosing. […] Because these case narratives were examined retrospectively from routine clinical care records, and not gathered prospectively in a research study, more specific validated rating scales for assessing PTSD symptoms were not available. Additionally, follow-up varied, with the length of follow-up ranging from one week (Case 2) to 15 years (Case 16).
# rats = assay: Reserpine-induced fibromyalgia model, von Frey test; assay type: in vivo, rat; conditions: methylone 15 mg/kg IP 30 min before vonFrey test, day 4
# [2] = system: myelin basic protein (MBP) in the amygdala; assay: Immunohistochemistry of myelin basic protein; assay type: in vivo, rat; conditions: 10 mg/kg IP, single dose, 24 h
# Method: Immunohistochemistry: The in-life portion of the study was conducted at WuXi Apptec (Cranbury, NJ). Sectioning and staining of brains took place at Neuroscience Associates (NSA, Knoxville, TN). […] Brains were post-fixed in PFA before shipment to NSA for processing and staining. Hemisected brains were mounted, sectioned and stained using standard protocols with myelin-basic protein primary antibody (MBP SMI-99, 1:5000, Biolegend, San Diego, CA) and anti-mouse biotinylated secondary antibody (BA-2001, Vector Laboratories, Newark, CA). Slides were imaged using a Huron Digital Pathology TissueScope LE120 whole slide scanning system. 20× objective was used with a 0.4 μm/pixel resolution.
smiles,measurement,setting,value
"CNC(C)C(=O)c1ccc2c(c1)OCO2 (stereo not drawn) [methylone, 3,4-methylenedioxy-N-methylcathinone]",antidepressant-like effect in FST,"Sprague Dawley rats; 15 mg/kg PO, single dose 2 hours before test, vs vehicle",significant antidepressant-like effect
same,climbing behavior,"Sprague Dawley rats; Example 8, Methylone 5 or 15 mg/kg IP",significantly increased climbing behavior
same,climbing,"Sprague Dawley rats; methylone 5-30 mg/kg IP, 30 min before test",only increased at the lowest dose
same,effectiveness in FST,Sprague Dawley rats; methylone doses of 10 mg/kg or more,maximally effective
same,swimming,"Sprague Dawley rats; mid and high doses of methylone IP, 30 min before test",significantly increased swimming
same,immobility,"Sprague Dawley rats; single dose 5, 10, 15, 20, 30 mg/kg IP 30 min before test, vs saline vehicle",significantly reduced immobility
same,adverse effects,"[1]; Cohort 1, 4 healthy subjects, total dose 790-870 mg in one session",no adverse effects or after-effects were observed or reported
same,patients with initial improvement at first methylone session,[1]; Cohort 2 (25 of 28 patients),~90%
same,Number of cases with highest observed CGI-I 1,"[1]; Cohort 2, N = 28",11*
same,Number of cases with highest observed CGI-I 2,"[1]; Cohort 2, N = 28",13
same,Number of cases with highest observed CGI-I 3,"[1]; Cohort 2, N = 28",4
same,Number of cases with highest observed CGI-I 4,"[1]; Cohort 2, N = 28",0
same,Number of cases with highest observed CGI-I 5,"[1]; Cohort 2, N = 28",0
same,Number of cases with highest observed CGI-I 6,"[1]; Cohort 2, N = 28",0
same,Number of cases with highest observed CGI-I 7,"[1]; Cohort 2, N = 28",0
same,number of patients achieving a CGI-I of 1 or 2,"[1]; Example 5, 21 PTSD patients",17 patients
same,tolerability,"[1]; Example 5, 21 PTSD patients, oral 100 to 1,020 mg",generally well tolerated
same,Best CGI-S post-treatment,"[1]; individual cases, Cohort 2",1 and 4 and 2 and 3
same,CGI-S max change from BL,"[1]; individual cases, Cohort 2",−3 (4×) and −4
same,paw withdrawal thresholds,rats,significantly increased paw withdrawal thresholds
same,MBP level in basolateral and central nuclei of the amygdala vs vehicle,[2],significant reduction in MBP
